Test results taken from patent publication US6887876B2, “Benzamidine derivatives” (Ortho-McNeil Pharmaceutical, Inc., priority 2000, dated 2005).

What was measured:
δ-opioid receptor [1] = target: δ-opioid receptor (Rattus norvegicus, UniProt P33533); assay: Rat brain δ-opioid receptor binding assay ([3H]DPDPE)
δ-opioid receptor [2] = target: T1, δ-opioid receptor (Homo sapiens, UniProt P41143); assay: Scintillation screening assay for δ-opioid receptor binding ([3H]bremazocine); details: cloned human receptor in CHO cell membranes, [3H]bremazocine 2.4 nM, read-out: δ-Opioid Receptor Binding (% Inhibition), % I @ 25 μM
T1 construct: purchased Receptor Biology, Baltimore, Md; host or cells: CHO cells (membranes)
T1 sequence (P41143 whole entry): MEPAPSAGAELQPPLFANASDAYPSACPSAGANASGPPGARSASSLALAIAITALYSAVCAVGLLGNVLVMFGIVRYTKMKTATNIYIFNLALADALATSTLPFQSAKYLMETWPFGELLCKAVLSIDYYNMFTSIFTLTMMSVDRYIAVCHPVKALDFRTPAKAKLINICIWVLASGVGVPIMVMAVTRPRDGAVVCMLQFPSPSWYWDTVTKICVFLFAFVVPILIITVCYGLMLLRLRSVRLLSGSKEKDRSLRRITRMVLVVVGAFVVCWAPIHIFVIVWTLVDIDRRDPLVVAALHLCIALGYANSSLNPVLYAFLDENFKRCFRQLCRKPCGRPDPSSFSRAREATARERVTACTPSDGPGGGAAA
From the text: Scintillation Screening Assay for δ-Opioid Receptor Binding
This is a receptor based screen to detect the competitive binding of test compounds at the δ-opioid receptor against the radioligand, [^3H]bremazocine (S.A.=25.5 Cl/mmol, Dupont/NEN, Cambridge, Mass.). Unknown compounds that bind to the same receptor as the radioligand will compete for the receptor and reduce the amount of radioligand which binds to the receptor. This is detected as a decreased scintillation signal from that particular incubation. The greater affinity an unknown has for the receptor, the larger the observed decrease in […] to the receptor; thus the assay is in the format of an inhibition study.
The receptor is a cloned human cDNA expressed in mammalian CHO cells. Membranes prepared from these cells are purchased from Receptor Biology, Baltimore, Md. The reaction buffer is composed as follows: HEPES (50 mM final), MgCl.6H2O (5 mM final), o-phenanthroline (20 mg/l), aprotinin (10 mg/l), Pefabloc SC (250 mg/l), leupeptin (0.5 mg/l), pepstatin A (0.7 mg/l), trypsin inhibitor (25 mg/l), chymostatin (10 mg/l), pH=7.2. Naloxone, 10 uM, is used to define non-specific binding. The assay employs filtration to capture receptor and bound ligand.
The receptor (membrane) preparation (28 ug protein) is allowed to incubate with the opioid receptor radioligand ([^3H]bremazocine, 2.4 nM) in 96-well plates until equilibrium is reached (>2 hr). Following incubation with the radioligand at 23° C., the well contents are filtered onto 96-well Whatman GF/C filter plates using a Packard cell harvester. Radioligand bound to the receptor also remains on the filter. The filters are rinsed three times with 0.5 mL of physiological saline (0.9% NaCl) to remove any unbound radioligand from the filter. Filters are dried and scintillation fluid is then added to the filters which emits light in proportion to the amount of radioactivity on the filter which is determined using an Packard Topcount scintillation counter. Data are reported as percent inhibition of control binding.

μ-opioid receptor = μ-opioid receptor (Rattus norvegicus, UniProt P33535); assay: Rat brain μ-opioid receptor binding assay ([3H]DAMGO)
μ-opioid receptor, sequence (P33535 whole entry): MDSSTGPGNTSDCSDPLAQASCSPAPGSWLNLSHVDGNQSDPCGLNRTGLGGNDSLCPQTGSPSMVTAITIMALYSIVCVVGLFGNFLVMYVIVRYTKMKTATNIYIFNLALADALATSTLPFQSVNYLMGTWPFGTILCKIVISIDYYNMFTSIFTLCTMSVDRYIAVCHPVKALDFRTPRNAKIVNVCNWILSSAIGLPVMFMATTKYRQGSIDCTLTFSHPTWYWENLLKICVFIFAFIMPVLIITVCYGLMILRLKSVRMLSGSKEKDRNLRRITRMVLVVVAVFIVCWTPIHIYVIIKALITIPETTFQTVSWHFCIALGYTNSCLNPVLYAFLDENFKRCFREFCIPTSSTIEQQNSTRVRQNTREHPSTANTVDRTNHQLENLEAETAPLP

[3] = system: acetylcholine bromide-induced abdominal constriction response; assay: Mouse acetylcholine bromide-induced abdominal constriction assay (MAIT); type: in vivo; details: po, 0.5 h, 150 μmole/Kg p.o., acetylcholine bromide 5.5 mg/kg i.p. 30 min later
Method: The mouse acetylcholine-induced abdominal constriction assay, as described by Collier et al. in […]., 32: 295-310, 1968 with minor modifications, was used to assess analgesic potency of the compounds of formula (I). The test drugs or appropriate vehicles were administered orally (p.o.) and 30 min later the animal received an intraperitoneal (i.p.) injection of 5.5 mg/kg acetylcholine bromide (Matheson, Coleman and Bell, East Rutherford, N.J.). The mice were then placed in groups of three into glass bell jars and observed for a ten min observation period for the occurrence of an abdominal constriction response (defined as a wave of constriction and elongation passing caudally along the abdominal wall, accompanied by a twisting of the trunk and followed by extension of the hind limbs). For compounds of the present invention, the percent inhibition of this response to a nociceptive stimulus (equated to % analgesia) was calculated as follows: [formula]

δ-opioid receptor (Rattus norvegicus, UniProt P33533), sequence (P33533 whole entry): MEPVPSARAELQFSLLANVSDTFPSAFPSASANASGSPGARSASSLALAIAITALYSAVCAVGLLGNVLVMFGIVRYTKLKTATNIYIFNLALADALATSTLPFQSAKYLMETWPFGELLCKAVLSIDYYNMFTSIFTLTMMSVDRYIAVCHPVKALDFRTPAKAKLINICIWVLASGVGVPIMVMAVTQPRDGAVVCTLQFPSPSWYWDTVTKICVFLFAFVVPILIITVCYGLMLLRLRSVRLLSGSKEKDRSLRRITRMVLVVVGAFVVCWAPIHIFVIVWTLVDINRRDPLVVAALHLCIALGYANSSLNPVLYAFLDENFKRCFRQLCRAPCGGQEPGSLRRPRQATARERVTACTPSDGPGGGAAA

`CCN1CCN(C(=Nc2ccccc2F)c2ccc(C(=O)N(CC)CC)cc2)CC1` [Compound 10, N,N-diethyl-4-[(4-ethyl-1-piperazinyl)[(2-fluorophenyl)imino]methyl]-benzamide] was tested, and the Ki (δ-opioid receptor [1]) was 118 nM, the inhibition at 25 µM (δ-opioid receptor [2]) was 102% and the Ki (μ-opioid receptor) was > 10 µM. It also gave an inhibition in vivo at 150 µmol/kg [3] of 26.7%.
